The source made the active and inactive calls. The rule behind the calls is not given here.
How the values were obtained:
HCT-116 = assay: cells; settings: Homo sapiens, HCT-116, 72 h
HL-60 = assay: Cytotoxicity against human HL60 cells after 72 hrs by MTT assay; format: functional, cell-based; settings: HL-60, 72 h
KB = assay: Cytotoxicity against human KB cells after 72 hrs by MTT assay; format: functional, cell-based
A549 = assay: Cytotoxicity against human A549 cells after 72 hrs by MTT assay; format: functional, cell-based; settings: A549, 72 h
PC-3 = assay: cells; settings: Homo sapiens, PC-3, 72 h
Description: Cytotoxicity against human PC3 cells after 72 hrs by MTT assay

[1] = target: T1, Phosphatidylinositol 4,5-bisphosphate 3-kinase catalytic subunit alpha isoform (Homo sapiens, UniProt P42336); assay: Inhibition of human recombinant PI3Kalpha assessed as production of 3,4,5-inositoltriphosphate after 3 hrs by fluorescence polarization assay
T1 sequence (P42336 whole entry, canonical isoform): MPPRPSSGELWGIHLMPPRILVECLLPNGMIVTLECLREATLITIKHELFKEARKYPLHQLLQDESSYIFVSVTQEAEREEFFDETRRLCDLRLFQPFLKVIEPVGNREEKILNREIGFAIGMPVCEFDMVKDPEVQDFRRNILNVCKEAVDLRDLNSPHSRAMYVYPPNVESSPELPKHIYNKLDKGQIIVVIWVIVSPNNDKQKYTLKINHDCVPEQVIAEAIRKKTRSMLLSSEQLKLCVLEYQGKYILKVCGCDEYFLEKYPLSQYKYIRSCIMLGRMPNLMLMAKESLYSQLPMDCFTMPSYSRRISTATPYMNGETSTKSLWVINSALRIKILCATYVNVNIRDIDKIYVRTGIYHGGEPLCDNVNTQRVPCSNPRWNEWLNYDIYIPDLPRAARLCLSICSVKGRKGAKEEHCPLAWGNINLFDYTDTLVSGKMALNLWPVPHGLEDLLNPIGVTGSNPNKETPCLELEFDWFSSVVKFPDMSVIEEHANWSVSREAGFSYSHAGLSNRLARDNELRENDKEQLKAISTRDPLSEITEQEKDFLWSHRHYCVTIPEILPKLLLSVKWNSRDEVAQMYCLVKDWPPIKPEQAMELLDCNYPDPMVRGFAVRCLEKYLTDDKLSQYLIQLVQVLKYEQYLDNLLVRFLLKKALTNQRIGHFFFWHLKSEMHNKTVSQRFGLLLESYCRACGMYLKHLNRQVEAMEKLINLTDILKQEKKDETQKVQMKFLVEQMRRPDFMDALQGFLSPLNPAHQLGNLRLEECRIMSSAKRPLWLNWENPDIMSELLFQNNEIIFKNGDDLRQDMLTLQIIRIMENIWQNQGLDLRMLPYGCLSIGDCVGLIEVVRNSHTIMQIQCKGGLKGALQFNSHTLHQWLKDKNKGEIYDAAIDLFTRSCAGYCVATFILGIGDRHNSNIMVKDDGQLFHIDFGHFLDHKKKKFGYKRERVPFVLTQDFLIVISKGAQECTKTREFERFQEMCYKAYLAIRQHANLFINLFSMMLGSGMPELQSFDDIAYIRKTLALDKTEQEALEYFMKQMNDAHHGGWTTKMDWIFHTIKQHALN

[2] = target: T1, Phosphatidylinositol 4,5-bisphosphate 3-kinase catalytic subunit alpha isoform; assay: Inhibition of PI3K in human PC3 cells assessed as suppression of Akt Ser473 phosphorylation at 10 uM after 3 hrs by SDS-PAGE and Western blot analysis; format: cell-based; settings: PC-3

| SMILES | IC50 (HCT-116) [µM] | IC50 (PC-3) [µM] | IC50 [1] [µM] | inhibition [2] | IC50 (HL-60) [µM] | IC50 (KB) [µM] | IC50 (A549) [µM] |
| --- | --- | --- | --- | --- | --- | --- | --- |
| Nc1cccc(Nc2nc3ccccc3nc2S(=O)(=O)c2ccc(Br)cc2)c1 | 3.28 | 9.01 | – | – | 1.37 | 5.34 | 1.12 |
| COc1cc(Nc2nc3ccccc3nc2S(=O)(=O)c2ccc(Br)cc2)cc(OC)c1OC | 13 | 19.8 | – | – | 1.02 | – | 6.11 |
| Cc1ccc(S(=O)(=O)c2nc3ccccc3nc2Nc2ccc(F)cc2)cc1 | 10.5 | 13.1 | – | – | 5.1 | 8.95 | 39.2 |
| Nc1ccc(Nc2nc3ccccc3nc2S(=O)(=O)c2ccccc2)cc1 | 10.8 | 5.83 | – | – | 8.72 | 3.4 | 12.8 |
| Cc1ccc(S(=O)(=O)c2nc3ccccc3nc2Nc2cccc(O)c2)cc1 | 3.81 | 1.69 | > 1 | – | 0.4 | 5.35 | 6.08 |
| COc1ccc(S(=O)(=O)c2nc3ccccc3nc2Nc2cc(OC)c(OC)c(OC)c2)cc1 | > 50 | 7.85 | – | – | 0.68 | – | 5.17 |
| O=S(=O)(c1ccc(Br)cc1)c1nc2ccccc2nc1Nc1ccc(Cl)cc1 | 10.6 | 7.46 | – | – | 16.4 | 11.6 | 61.4 |
| COc1ccc(Nc2nc3ccccc3nc2S(=O)(=O)c2ccc(C)cc2)cc1 | > 50 | > 50 | – | – | 2.79 | – | > 50 |
| COc1cc(Nc2nc3ccccc3nc2S(=O)(=O)c2ccc(Br)cc2)cc(OC)c1 | > 50 | 18.2 | – | – | 2.54 | – | 15.8 |
| COc1cc(Nc2nc3ccccc3nc2S(=O)(=O)c2ccc(C)cc2)cc(OC)c1OC | 10.8 | 4.85 | – | – | 0.32 | – | 5.61 |
| Cc1ccc(S(=O)(=O)c2nc3ccccc3nc2Nc2ccc(N)cc2)cc1 | 11.5 | 5 | – | – | 1.22 | 5.63 | 24.6 |
| COc1cc(Nc2nc3ccccc3nc2S(=O)(=O)c2ccc(F)cc2)cc(OC)c1OC | 3.11 | > 50 | – | – | 4.79 | – | > 50 |
| COc1cc(Nc2nc3ccccc3nc2S(=O)(=O)c2ccccc2)cc(OC)c1OC | > 50 | 29.1 | – | – | 1.77 | – | 9.66 |
| COc1ccc(S(=O)(=O)c2nc3ccccc3nc2Nc2cc(OC)cc(OC)c2)cc1 | 13.4 | 6.22 | – | – | 1.71 | – | 12.7 |
| Nc1ccc(Nc2nc3ccccc3nc2S(=O)(=O)c2ccc(F)cc2)cc1 | 10.1 | 2.05 | – | – | 1.62 | – | 12.7 |
| COc1ccc(Nc2nc3ccccc3nc2S(=O)(=O)c2ccc(Br)cc2)cc1 | 3.4 | 1.11 | – | – | 1.19 | – | 3.34 |
| O=c1cc(N2CCOCC2)oc2c(-c3ccccc3)cccc12 [LY-294002] | 56 | 61.4 | – | – | 9.94 | 44.8 | 89.7 |
| COc1ccc(S(=O)(=O)c2nc3ccccc3nc2Nc2ccc(N)cc2)cc1 | 6.3 | 9.64 | – | – | 0.71 | 17.8 | 2.99 |
| COc1cc(Nc2nc3ccccc3nc2S(=O)(=O)c2ccc(C)cc2)cc(OC)c1 | > 50 | 2.94 | – | Active | 0.02 | – | 8.06 |
| O=S(=O)(c1ccccc1)c1nc2ccccc2nc1Nc1ccc(F)cc1 | 5.19 | 14.2 | – | – | 1.01 | > 50 | > 50 |
| COc1ccc(Nc2nc3ccccc3nc2S(=O)(=O)c2ccc(OC)cc2)cc1 | 29.1 | 8.71 | – | – | 1.19 | – | 8.26 |
| COc1cc(Nc2nc3ccccc3nc2S(=O)(=O)c2ccc(F)cc2)cc(OC)c1 | 3.93 | 4.53 | – | – | 2.36 | – | 5.45 |
| COc1ccc(S(=O)(=O)c2nc3ccccc3nc2Nc2cccc(N)c2)cc1 | 3.71 | 8.6 | – | – | 1.49 | 4.96 | 0.34 |
| Nc1cccc(Nc2nc3ccccc3nc2S(=O)(=O)c2ccc(F)cc2)c1 | 6.79 | 1.98 | – | – | 4.04 | – | 6.84 |
| COc1ccc(S(=O)(=O)c2nc3ccccc3nc2Nc2ccc(Cl)cc2)cc1 | 26.5 | 31.8 | – | – | 19.6 | 49.8 | 87.3 |

These reach a lower IC50 (HCT-116). Values come first.

| IC50 (HCT-116) [µM] | IC50 (PC-3) [µM] | IC50 [1] [µM] | inhibition [2] | SMILES | IC50 (HL-60) [µM] | IC50 (KB) [µM] | IC50 (A549) [µM] |
| --- | --- | --- | --- | --- | --- | --- | --- |
| 0.82 | 1.63 | > 1 | – | COc1ccc(S(=O)(=O)c2nc3ccccc3nc2Nc2cccc(O)c2)cc1 | 0.14 | 8.27 | 6.11 |
| 1.67 | 9.16 | – | – | O=S(=O)(c1ccc(Br)cc1)c1nc2ccccc2nc1Nc1ccc(F)cc1 | 0.26 | 2.28 | 4.36 |
| 0.95 | 0.14 | 0.07 | – | COc1cc(Nc2nc3ccccc3nc2S(=O)(=O)c2ccccc2)cc(OC)c1 | 0.05 | – | 0.07 |
| 2 | 15.3 | – | – | O=S(=O)(c1ccccc1)c1nc2ccccc2nc1Nc1ccc(Cl)cc1 | 1.92 | 41.2 | 30.7 |
| 2.61 | 4.15 | – | – | O=S(=O)(c1ccc(Br)cc1)c1nc2ccccc2nc1Nc1ccc(C(F)(F)F)cc1 | 0.28 | > 50 | > 50 |
| 0.95 | 2.54 | – | – | Cc1ccc(S(=O)(=O)c2nc3ccccc3nc2Nc2ccc(C(F)(F)F)cc2)cc1 | 0.27 | 10.3 | 13.5 |
| 2.05 | 9.66 | – | – | Cc1ccc(S(=O)(=O)c2nc3ccccc3nc2Nc2ccc(Cl)cc2)cc1 | 17.5 | 13.8 | 54.2 |
| 1.39 | 2.33 | – | Active | Nc1ccc(Nc2nc3ccccc3nc2S(=O)(=O)c2ccc(Br)cc2)cc1 | 0.73 | 4.08 | 1.02 |
| 2.39 | 2 | – | – | Cc1ccc(S(=O)(=O)c2nc3ccccc3nc2Nc2cccc(N)c2)cc1 | 1.08 | 10.6 | 1.95 |
| 0.11 | 0.33 | – | – | COc1ccc(S(=O)(=O)c2nc3ccccc3nc2Nc2ccc(C(F)(F)F)cc2)cc1 | 0.22 | 0.89 | 4.81 |
| 1.11 | 1.18 | – | – | O=S(=O)(c1ccc(Br)cc1)c1nc2ccccc2nc1Nc1ccccc1 | 0.13 | 5.1 | 10.8 |
| 2.42 | 1.51 | – | – | COc1ccc(Nc2nc3ccccc3nc2S(=O)(=O)c2ccccc2)cc1 | 0.64 | – | 11.9 |
| 2.09 | 3.55 | – | – | O=S(=O)(c1ccccc1)c1nc2ccccc2nc1Nc1ccc(C(F)(F)F)cc1 | 0.3 | > 50 | > 50 |
| 2.11 | 2.2 | – | – | COc1ccc(S(=O)(=O)c2nc3ccccc3nc2Nc2ccc(F)cc2)cc1 | 0.61 | 2.59 | 1.24 |
| 0.54 | 1.7 | 0.47 | – | O=S(=O)(c1ccc(Br)cc1)c1nc2ccccc2nc1Nc1cccc(O)c1 | 0.2 | 8.41 | 8 |
| 1.63 | 0.59 | – | – | O=S(=O)(c1ccccc1)c1nc2ccccc2nc1Nc1ccccc1 | 0.14 | 22.6 | 26.3 |
| 1.07 | 1.06 | – | – | Cc1ccc(S(=O)(=O)c2nc3ccccc3nc2Nc2ccccc2)cc1 | 0.4 | 19 | 12.5 |
| 3.01 | 4.33 | – | – | COc1ccc(Nc2nc3ccccc3nc2S(=O)(=O)c2ccc(F)cc2)cc1 | 1.2 | – | 4.84 |
| 1.15 | 1.68 | > 1 | – | O=S(=O)(c1ccccc1)c1nc2ccccc2nc1Nc1cccc(O)c1 | 0.22 | 8.42 | 5.73 |
| 1.54 | 2.15 | – | – | Nc1cccc(Nc2nc3ccccc3nc2S(=O)(=O)c2ccccc2)c1 | 1.75 | 4.29 | 1.59 |
| 1.26 | 1.26 | – | – | COc1ccc(S(=O)(=O)c2nc3ccccc3nc2Nc2ccccc2)cc1 | 0.26 | 9.89 | 13.2 |
